What all share (assay): inhibition of tumour cell growth, NCI panel, 48 h
The test system of test [1] is NCI-H522.
Test [2] has as its system Malme-3M.
Test [3] has as its system SN12C.
Test [4] has as its system SF-295.
The test system of test [5] is DU-145.
The test system of test [6] is K562.
Test [7] relates to NCI/ADR-RES.
Test [8] relates to IGROV-1.
Test [9] has as its system TK-10.
Test [10] relates to MCF7.
Test [11] deals with HL-60.
Test [12] has as its system SF-268.
For test [13], the system named is T47D.
Test [14] has as its system OVCAR-3.
For test [15], the system named is ACHN.
Test [16] deals with EKVX.
The subject of test [17] is SNB-75.
In test [18] the test system is HT-29.
Test [19] relates to M14.
Test [20] has as its system HOP-92.

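Tested at 5 concentrations; 48 h exposure; 96-well plates; endpoints linearly interpolated, else capped at highest concentration. GI50 is the concentration that inhibits growth by half.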 The source made the active and inactive calls. Rule as the data show it: active = GI50 up to about 1.1 µM and inactive = higher.

Turning to `O/N=C1\C/C(=N\O)c2c(Br)sc(Br)c21`, the GI50 in test [1] is 17.7 µM (inactive); in test [2], > 100 µM (inactive); in test [3], > 100 µM (inactive); in test [4] it was > 100 µM (inactive); in [5], 39.1 µM (inactive); in test [6], 37.5 µM (inactive). Moreover, the GI50 was 30.2 µM (inactive) in [7]; 30.4 µM (inactive) in test [8]; 38.5 µM (inactive) in test [9]; 38.3 µM (inactive) in test [10]; 27.4 µM (inactive) in [11]; 17.4 µM (inactive) in test [12]. Further, the GI50 in test [13] is 31.3 µM (inactive); in test [14], 30.6 µM (inactive); in test [15] it was > 100 µM (inactive); in test [16], 16.9 µM (inactive); in test [17] it was 17.3 µM (inactive); in [18], > 100 µM (inactive). Also, the GI50 is 45.6 µM (inactive) in test [19] and 46 µM (inactive) in test [20].
In the case of `CCOP(=O)(C=C=C1CCC2[C@@H]3CCc4cc(OC)ccc4C3CC[C@]12C)OCC` (stereo not given in full), the GI50 is 4.16 µM (inactive) in [1]; 15.6 µM (inactive) in test [2]; 10.4 µM (inactive) in test [3]; 5.6 µM (inactive) in test [4]; 14 µM (inactive) in test [5]; 0.348 µM (active) in test [6]. Moreover, the GI50 in [7] is 6.47 µM (inactive); in test [8] it was 11.4 µM (inactive); in test [9], 12.7 µM (inactive); in test [10], 6.14 µM (inactive); in [11] it was 0.0222 µM (active); in test [12] it was 11.9 µM (inactive). Besides, the GI50 is 6.22 µM (inactive) in test [13]; 10.2 µM (inactive) in test [14]; 10.3 µM (inactive) in [15]; 10 µM (inactive) in test [16]; 12.7 µM (inactive) in test [17]; 3.93 µM (inactive) in test [18]. Also, the GI50 was 11.6 µM (inactive) in [19] and 10.1 µM (inactive) in [20].
As for `O=C(NNS(=O)(=O)c1ccccc1)c1csc(NC(=S)NC2CCCCC2)n1`, the GI50 in [1] was 26.2 µM (inactive); in [2], 35.4 µM (inactive); in [3], 20.8 µM (inactive); in test [4], 32.1 µM (inactive); in [5], 27.2 µM (inactive); in test [6], 56.6 µM (inactive). For the same compound, the GI50 was 38.4 µM (inactive) in test [7]; 26.5 µM (inactive) in test [8]; 35.6 µM (inactive) in test [9]; 41 µM (inactive) in [10]; 69.5 µM (inactive) in [11]; 22 µM (inactive) in [12]. The GI50 was 18.7 µM (inactive) in test [13]; 4.07 µM (inactive) in test [14]; 33.5 µM (inactive) in test [15]; 35.6 µM (inactive) in test [16]; 32.8 µM (inactive) in test [17]; 33.6 µM (inactive) in [18]. Also, the GI50 in test [19] was 39.2 µM (inactive); in [20], 55.2 µM (inactive).
In the case of `CC(=O)O[C@H]1/C(=C/c2ccncc2)C[C@H]2[C@@H]3CC=C4C[C@@H](N5CCCC5)CC[C@]4(C)[C@H]3CC[C@]12C`, the GI50 in test [1] is 15.2 µM (inactive); in test [2], 13 µM (inactive); in test [3] it was 17 µM (inactive); in test [4], 14.5 µM (inactive); in test [5], 14.6 µM (inactive); in test [6], 2.74 µM (inactive). The GI50 in [7] is 8.95 µM (inactive); in test [8], 12.6 µM (inactive); in test [9], 14.6 µM (inactive); in test [10] it was 12.1 µM (inactive); in [11], 8.38 µM (inactive); in test [12] it was 15.1 µM (inactive). Moreover, the GI50 is 13.4 µM (inactive) in test [13]; 21.8 µM (inactive) in test [14]; 14.1 µM (inactive) in test [15]; 13.9 µM (inactive) in test [16]; 14.7 µM (inactive) in test [17]; 1.49 µM (inactive) in [18]. In addition, the values for the GI50 in test [19] and in test [20] were 9.35 µM (inactive) and 4.24 µM (inactive), respectively.
On to `CC(=O)Oc1ccc(/C=C/C(=O)OCCOC(=O)/C=C/c2ccc(OC(C)=O)c(OC(C)=O)c2)cc1OC(C)=O`, for which the GI50 in test [1] is 2.93 µM (inactive); in test [2], 12.4 µM (inactive); in [3] it was 11.7 µM (inactive); in test [4] it was 8.97 µM (inactive); in test [5] it was 9.06 µM (inactive); in [6] it was 4.89 µM (inactive). Also, the GI50 in [7] is 4.06 µM (inactive); in [8], 2.95 µM (inactive); in [9], 10.2 µM (inactive); in [10] it was 9.64 µM (inactive); in [11], 3.95 µM (inactive); in test [12] it was 8.43 µM (inactive). The GI50 in [13] was 13 µM (inactive); in [14], 5.36 µM (inactive); in test [15] it was 4.05 µM (inactive); in [16], 14.8 µM (inactive); in test [17] it was 4.23 µM (inactive); in test [18] it was 18.6 µM (inactive). Besides, the GI50 in test [19] was 10.8 µM (inactive); in test [20] it was 5.77 µM (inactive).
Turning to `O=[As](O)(O)c1ccc(Cc2ccc([As](=O)(O)O)cc2)cc1`, the GI50 is 0.419 µM (active) in [1]; 1.2 µM (inactive) in [2]; 0.64 µM (active) in test [3]; 2.78 µM (inactive) in test [4]; 0.336 µM (active) in [5]; 0.265 µM (active) in test [6]. In addition, the GI50 is 1.48 µM (inactive) in [7]; 0.692 µM (active) in test [8]; 0.547 µM (active) in test [9]; 0.284 µM (active) in [10]; 1.09 µM (active) in test [11]; 0.434 µM (active) in test [12]. Also, the GI50 in test [13] was 0.312 µM (active); in test [14], 0.839 µM (active); in test [15], 1.03 µM (active); in test [16], 1.13 µM (inactive); in [17], 1.34 µM (inactive); in test [18], 0.778 µM (active). Also, the GI50 in [19] is 1.06 µM (active); in test [20], 1.5 µM (inactive).
For the compound `COC(=O)/C(C#N)=C(\Nc1ccccc1)N1CCOCC1`, the GI50 in test [1], in test [2], in test [3], in test [4], in test [5] and in test [6] was > 100 µM (inactive) in each case. Also, the GI50 in test [7], in [8], in test [9], in [10], in [11] and in test [12] was > 100 µM (inactive) each time. Moreover, the GI50 in test [13], in test [14], in test [15], in test [16], in [17] and in test [18] was > 100 µM (inactive) in each case. For the same compound, the GI50 in test [19] and in [20] was > 100 µM (inactive) each time.
For the compound `Cc1cc2c(cc1C)C(=O)C1(C2)Cc2cc3c(cc2C1=O)CCC3` (stereo not given), the GI50 in test [1], in test [2], in test [3], in [4], in [5] and in test [6] was > 100 µM (inactive) in each case. The GI50 in [7], in test [8], in [9], in test [10], in test [11] and in test [12] was > 100 µM (inactive) throughout. Besides, the GI50 in [13], in [14], in test [15], in test [16], in test [17] and in [18] was > 100 µM (inactive) each time. Further, the GI50 in test [19] is 44.1 µM (inactive); in test [20], > 100 µM (inactive).
With `COc1cc([C@H]2c3cc4c(cc3O[C@@]3(O)COC(=O)[C@@H]23)OCO4)cc(OC)c1OC`, the GI50 in [1], in [2], in [3], in [4], in test [5] and in test [6] was > 100 µM (inactive) in each case. Besides, the GI50 in test [7], in test [8], in test [9], in test [10], in [11] and in test [12] was > 100 µM (inactive) throughout. For the same compound, the GI50 in test [13], in test [14], in test [15], in test [16], in test [17] and in [18] was > 100 µM (inactive) each time. Also, the GI50 in test [19] and in test [20] was > 100 µM (inactive) each time.
Take `O=C(COc1ccc(Cl)c(Cl)c1)Nc1ccc[n+](Cc2ccc(S(=O)(=O)F)c(Cl)c2)c1`: the GI50 in test [1] is > 100 µM (inactive); in [2] it was 51.2 µM (inactive); in [3], 98.4 µM (inactive); in test [4] it was > 100 µM (inactive); in [5] it was > 100 µM (inactive); in test [6] it was > 100 µM (inactive). The GI50 in [7], in test [8], in test [9], in test [10], in [11] and in test [12] was > 100 µM (inactive) each time. Moreover, the GI50 in [13], in test [14], in test [15], in [16], in test [17] and in test [18] was > 100 µM (inactive) throughout. Also, the GI50 in test [19] and in test [20] was > 100 µM (inactive) in each case.
